Laboratory results reported in US20120165354A1, “TREATMENT METHOD” (GLAXO WELLCOME MANUFACTURING PTE LTD., priority 2009, published 2012).
Where a name gives a salt, the structure may show the parent alone.

Columns and labels:
[1] = tested on: subjects with occult or minimally classic subtypes of choroidal neovascularization due to AMD; assay: Optical coherence tomography central retinal thickness (OCT CRT/CRLT) in AMD patients, 28-day eye-drop study; format: in vivo, human
Protocol: (§1) Three dosing regimens of pazopanib monohydrochloride eye drops (5 mg/mL TID, 2 mg/mL TID, 5 mg/mL QD) were administered for 28 days to 70 subjects with occult or minimally classic subtypes of choroidal neovascularization due to AMD. This study was designed to measure pharmacological activity of topically administered pazopanib in target tissues (choroid and retina) of patients with AMD by weekly evaluation of central retinal lesion thickness as measured by optical coherence tomography (OCT). In addition, the ocular and systemic safety and systemic pharmacokinetics of pazopanib treatment for 28 days were evaluated. Evaluation of efficacy was performed on an exploratory basis by weekly measurement of visual acuity, performing best-corrected visual acuity assessments at screening and day 29.
(§2) Of the total of 70 subjects that were randomized, 28 had been previously treated with anti-angiogenic agents for treatment of macular degeneration and 42 were treatment-naïve. The protocol excluded subjects who had received any treatment for AMD within 60 days of the first dose of study medication in this trial. A total of 68 subjects completed all study assessments, of which 63 completed the assessments of Day 29 visit without receiving any rescue medication. 6 subjects received anti-VEGF rescue medication prior to the Day 29 assessment (1 of 27 in the 5 mg/ml TID arm, 2 of 27 in the 2 mg/ml TID, 3 of 16 subjects in the 5 mg QD arm, which was discontinued per protocol amendment due to feasibility.) Baseline characteristics in the study were similar between treatment groups, with the exception of age and lesion size, which were increased in the 2 mg/ml TID arm.
Sites were certified by a central reading center to collect images to assess Central Retinal Thickness (CRT, subretinal fluid) and Central Retinal Lesion Thickness (CRLT, subretinal fluid and neovascular lesion) on a Stratus OCT 3 instrument weekly. Values were then determined by manual measurement at the reading center. As used herein, “OCT CRLT” means optical coherence tomography central retinal/lesion thickness as determined by manual measurement of the distance between the inner and outer retina, inclusive of subretinal fluid and any choroidal neovascularization (CNV) as measured in the central 1 mm area of the 7 mm posterior pole scan. As used herein, “OCT CRT” means optical coherence tomography central retinal thickness as determined by manual measurement of the distance between the inner and outer retina inclusive of any subretinal fluid as measured in the central 1 mm area of the 7 mm posterior pole scan.

[2] = tested on: subjects with occult or minimally classic subtypes of choroidal neovascularization due to AMD; assay: Best-corrected visual acuity (BCVA, ETDRS/AREDS procedure) in AMD patients, 28-day eye-drop study; format: in vivo, human; conditions: for Change from Baseline in BCVA Day 29, Point Estimate: Overall
Protocol: as §1, §2
Sites were trained and certified for visual acuity assessment with the standard procedure developed for the Early Treatment Diabetic Retinopathy Study (ETDRS) and adapted for the Age Related Eye Disease Study (AREDS). Best-corrected visual acuity (BCVA) measurements were performed at screening and Day 29 visits and, at other visits, use of the previous refraction for the visual acuity (VA) assessment was allowed.

Cc1ccc(Nc2nccc(N(C)c3ccc4c(C)n(C)nc4c3)n2)cc1S(N)(=O)=O [pazopanib monohydrochloride, 5-[[4-[(2,3-dimethyl-2H-indazol-6-yl)methylamino]-2-pyrimidinyl]amino]-2-methylbenzenesulfonamide monohydrochloride]
Change from Baseline in Central Retinal Thickness at Day 29, CRT LSMean ([1]; 2 mg/ml TID eye drops, CFH genotype CC, N=3): 22.15 | Change from Baseline in Central Retinal Thickness at Day 29, CRT LSMean ([1]; 2 mg/ml TID eye drops, CFH genotype CT, N=10): −14.6 | Change from Baseline in Central Retinal Thickness at Day 29, CRT LSMean ([1]; 2 mg/ml TID eye drops, CFH genotype TT, N=4): −45.5 | Change from Baseline in Central Retinal Thickness at Day 29, CRT LSMean ([1]; 5 mg/ml TID eye drops, CFH genotype CC, N=7): 9.23 | Change from Baseline in Central Retinal Thickness at Day 29, CRT LSMean ([1]; 5 mg/ml TID eye drops, CFH genotype CT, N=9): 21.51 | Change from Baseline in Central Retinal Thickness at Day 29, CRT LSMean ([1]; 5 mg/ml TID eye drops, CFH genotype TT, N=5): −88.8 | mean decrease in CRT ([1]; day 29, subjects with the CFH TT genotype, 5 mg/ml TID, statistically significant): 89 micron | changes from baseline in OCT CRT / CRLT ([1]; overall population): no statistically significant changes from baseline | Change from Baseline BCVA at Day 29, BCVA LSMean (SE) ([2]; 2 mg/ml TID, CFH Y402H genotype CC, N=3): 0.85 (4.07) | Change from Baseline BCVA at Day 29, BCVA LSMean (SE) ([2]; 2 mg/ml TID, CFH Y402H genotype CT, N=10): −1.52 (2.24) | Change from Baseline BCVA at Day 29, BCVA LSMean (SE) ([2]; 2 mg/ml TID, CFH Y402H genotype TT, N=4): 5.43 (3.60) | change in visual acuity ([2]; 5 mg/ml TID group only, enhanced in previously treated group and those with a T allele): Statistically significant increases | Change from Baseline BCVA at Day 29, BCVA LSMean (SE) ([2]; 5 mg/ml TID, CFH Y402H genotype CC, N=7): 0.36 (2.68) | Change from Baseline BCVA at Day 29, BCVA LSMean (SE) ([2]; 5 mg/ml TID, CFH Y402H genotype CT, N=9): 4.09 (2.38) | Change from Baseline BCVA at Day 29, BCVA LSMean (SE) ([2]; 5 mg/ml TID, CFH Y402H genotype TT, N=5): 6.96 (3.18) | Change from Baseline in BCVA at Day 29, Point Estimate ([2]; Naïve Subjects, 2 mg/mL TID): 1.16 | Change from Baseline in BCVA at Day 29, Point Estimate ([2]; Naïve Subjects, 5 mg/mL TID): 3.38 | Change from Baseline in BCVA at Day 29, Point Estimate ([2]; Naïve Subjects, 5 mg/mL once daily): 0.80 | Change from Baseline in BCVA Day 29, Point Estimate ([2]; 2 mg/mL TID): 0.76 | Change from Baseline in BCVA Day 29, Point Estimate ([2]; 5 mg/mL QD): 0.09 | Change from Baseline in BCVA Day 29, Point Estimate ([2]; 5 mg/mL TID): 4.32 | Change from Baseline in BCVA at Day 29, Point Estimate ([2]; Previously Treated Subjects, 2 mg/mL TID): 0.18 | Change from Baseline in BCVA at Day 29, Point Estimate ([2]; Previously Treated Subjects, 5 mg/mL TID): 5.61 | Change from Baseline in BCVA at Day 29, Point Estimate ([2]; Previously Treated Subjects, 5 mg/mL once daily): −0.80
